In the supplement of paper PMC11061612:

Experiments:
Assay in all cases: combination Emax (second highest fraction inhibited in the dose matrix, 72 h); higher = more inhibition; extreme values may be limits of the assay
[1] = test system: NCI-H196 (Small Cell Lung Carcinoma)
How it was run: (§1)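 After 24 hours at 37°C and 5% CO2 in 1536-well plates, cells in DMEM/F12 or RPMI plus 10% FBS received two-drug dose matrices for 72 hours. Viability came from CellTiter-Glo 2.0 luminescence and was scaled as inhibition, anchored at 0 by vehicle wells and at 1 by blank wells. Combination Emax is taken as the second-highest inhibition in the matrix, and Bliss excess as the observed combination effect less EA + EB − EA·EB, with EA and EB the single-agent effects.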

[2] = test system: PANC-02-03 (Pancreatic Carcinoma)
How it was run: as §1

[3] = test system: COLO-684 (Endometrial Carcinoma)
How it was run: as §1

[4] = test system: PC-14 (Lung Adenocarcinoma)
How it was run: as §1

[5] = test system: BALL-1 (B-Lymphoblastic Leukemia)
How it was run: as §1

[6] = test system: RL95-2 (Endometrial Carcinoma)
How it was run: as §1

[7] = test system: AN3-CA (Endometrial Carcinoma)
How it was run: as §1

KYM-1 (Rhabdomyosarcoma) = test system: KYM-1 (Rhabdomyosarcoma)
How it was run: as §1

[8] = test system: CML-T1 (Chronic Myelogenous Leukemia)
How it was run: as §1

[9] = test system: EB-3 (Burkitt's Lymphoma)
How it was run: as §1

[10] = test system: Becker (Low Grade Glioma)
How it was run: as §1

[11] = test system: NCI-H1623 (Lung Adenocarcinoma)
How it was run: as §1

[12] = test system: KYSE-70 (Esophageal Squamous Cell Carcinoma)
How it was run: as §1

[13] = test system: RMG-I (Ovarian Carcinoma)
How it was run: as §1

HuO-3N1 (Osteosarcoma) = test system: HuO-3N1 (Osteosarcoma)
How it was run: as §1

[14] = test system: NCI-H1563 (Lung Adenocarcinoma)
How it was run: as §1

[15] = test system: RERF-LC-KJ (Lung Adenocarcinoma)
How it was run: as §1

[16] = test system: NKM-1 (Acute Myeloid Leukemia)
How it was run: as §1

[17] = test system: SNU-175 (Colorectal Carcinoma)
How it was run: as §1

CHL-1 (Melanoma) = test system: CHL-1 (Melanoma)
How it was run: as §1

Row | SMILES | combination Emax [1] | combination Emax [2] | combination Emax [3] | combination Emax [4] | combination Emax [5] | combination Emax [6] | combination Emax [7] | combination Emax (KYM-1 (Rhabdomyosarcoma)) | combination Emax [8] | combination Emax [9] | combination Emax [10] | combination Emax [11] | combination Emax [12] | combination Emax [13] | combination Emax (HuO-3N1 (Osteosarcoma)) | combination Emax [14] | combination Emax [15] | combination Emax [16] | combination Emax [17] | combination Emax (CHL-1 (Melanoma))
1 | Cc1cc2ncnn2cc1Nc1ncc2c(n1)n(C1CCOCC1)c(=O)n2C [AZD7648] + O=C(c1cc(Cc2n[nH]c(=O)c3ccccc23)ccc1F)N1CCN(C(=O)C2CC2)CC1 [Olaparib] (first compound max 10 µM, 7x7, partner max 10 µM) | 0.129 | 0.147 | 0.238 | 0.241 | 0.826 | 0.264 | 0.304 | 0.274 | 0.71 | 0.377 | 0.12 | 0.446 | 0.124 | 0.192 | 0.233 | 0.331 | 0.241 | 0.73 | 0.0944 | 0.134
2 | CS(=O)(=O)CCNCc1ccc(-c2ccc3ncnc(Nc4ccc(OCc5cccc(F)c5)c(Cl)c4)c3c2)o1 [Lapatinib] + C[C@@H](Oc1cc(-c2cnn(C3CCNCC3)c2)cnc1N)c1c(Cl)ccc(F)c1Cl [Crizotinib] (first compound max 10 µM, 7x7, partner max 10 µM) | 0.19 | 0.735 | 0.78 | 1 | 0.913 | 0.934 | 0.874 | 0.971 | 0.965 | 0.909 | 0.725 | 0.987 | 0.585 | 0.851 | 0.876 | 0.776 | 0.81 | 0.965 | 0.917 | 0.757
3 | COc1nnc2ccc(N3CCC(c4ccc(OCCN5CCN(C)C(=O)[C@H]5C)cc4)CC3)nn12 [AZD5153] + CCN(CCO)CCCOc1ccc2c(Nc3cc(CC(=O)Nc4cccc(F)c4)[nH]n3)ncnc2c1 [AZD2811] (first compound max 1 µM, 7x7, partner max 1 µM) | 0.314 | 0.592 | 0.553 | 0.5 | 0.948 | 0.524 | 0.297 | 0.85 | 0.684 | 0.757 | 0.423 | 0.488 | 0.458 | 0.546 | 0.421 | 0.488 | 0.971 | 0.922 | 0.83 | 0.58
4 | CC(=O)Nc1cccc(-n2c(=O)n(C3CC3)c(=O)c3c(Nc4ccc(I)cc4F)n(C)c(=O)c(C)c32)c1 [Trametinib] + Cc1nc(-c2cn3c(n2)-c2ccc(-c4cnn(C(C)(C)C(N)=O)c4)cc2OCC3)n(C(C)C)n1 [Taselisib] (first compound max 1 µM, 7x7, partner max 10 µM) | 0.376 | 0.939 | 0.57 | 1 | 0.532 | 0.588 | 0.997 | 0.4 | 0.465 | 0.373 | 0.678 | 1 | 0.804 | 0.485 | 0.461 | 0.793 | 0.727 | 1 | 0.627 | 0.638
5 | Cc1cc2ncnn2cc1Nc1ncc2c(n1)n(C1CCOCC1)c(=O)n2C [AZD7648] + C=CCn1c(=O)c2cnc(Nc3ccc(N4CCN(C)CC4)cc3)nc2n1-c1cccc(C(C)(C)O)n1 [AZD1775] (first compound max 10 µM, partner max 1 µM) | 0.479 | 0.515 | 0.722 | 0.86 | 0.983 | 0.408 | 0.465 | 0.33 | 0.941 | 0.667 | 0.311 | 0.505 | 0.566 | 0.471 | 0.417 | 0.629 | 0.345 | 0.884 | 0.53 | 0.704
6 | Cn1cnc2c(F)c(Nc3ccc(Br)cc3Cl)c(C(=O)NOCCO)cc21 [Selumetinib] + C[C@@H]1COCCN1C2=NC(=NC(=C2)C3(CC3)[S@](=N)(=O)C)C4=C5C=CNC5=NC=C4 [AZD6738] (first compound max 10 µM, 7x7, partner max 10 µM) | 0.227 | 0.566 | 0.698 | 0.829 | 1 | 0.772 | 0.464 | 0.899 | 0.977 | 0.589 | 0.427 | 0.771 | 0.243 | 0.354 | 0.22 | 0.313 | 0.312 | 0.796 | 0.718 | 0.772
7 | C=CCn1c(=O)c2cnc(Nc3ccc(N4CCN(C)CC4)cc3)nc2n1-c1cccc(C(C)(C)O)n1 [AZD1775] + C1CN(CCC1(C(=O)N[C@@H](CCO)C2=CC=C(C=C2)Cl)N)C3=NC=NC4=C3C=CN4 [Capivasertib] (first compound max 3 µM, partner max 3 µM) | 0.578 | 0.605 | 0.841 | 0.859 | 1 | 0.963 | 0.905 | 0.767 | 0.932 | 0.829 | 0.602 | 0.597 | 0.534 | 0.47 | 0.633 | 0.459 | 0.548 | 0.954 | 0.917 | 0.826
8 | C[C@@H](c1ccc2nccn2c1)n1nnc2ncc(-c3cnn(C)c3)nc21 [Savolitinib] + CC1(C)CCC(CN2CCN(c3ccc(C(=O)NS(=O)(=O)c4ccc(NCC5CCOCC5)c([N+](=O)[O-])c4)c(Oc4cnc5[nH]ccc5c4)c3)CC2)=C(c2ccc(Cl)cc2)C1 [Venetoclax] (first compound max 1 µM, 7x7, partner max 1 µM) | 0.128 | 0.157 | 0.174 | 0.177 | 1 | 0.085 | 0.0904 | 0.185 | 0.279 | 0.253 | 0.344 | 0.173 | 0.095 | 0.208 | 0.181 | 0.18 | 0.15 | 0.545 | 0.119 | 0.118
9 | CCN(CCO)CCCOc1ccc2c(Nc3cc(CC(=O)Nc4cccc(F)c4)[nH]n3)ncnc2c1 [AZD2811] + C[C@@H]1COCCN1C2=NC(=NC(=C2)C3(CC3)[S@](=N)(=O)C)C4=C5C=CNC5=NC=C4 [AZD6738] (first compound max 1 µM, 7x7, partner max 10 µM) | 0.276 | 0.62 | 0.748 | 0.83 | 0.984 | 0.773 | 0.48 | 0.762 | 0.934 | 0.644 | 0.586 | 0.6 | 0.313 | 0.497 | 0.339 | 0.206 | 0.319 | 0.879 | 0.578 | 0.805
10 | COc1cc2c(cc1OCCCCCOc1cc3c(cc1OC)C(=O)N1C=C(C)C[C@H]1C=N3)N=C[C@@H]1CC(C)=CN1C2=O [SG3199] + O=C(c1cc(Cc2n[nH]c(=O)c3ccccc23)ccc1F)N1CCN(C(=O)C2CC2)CC1 [Olaparib] (first compound max 0.001 µM, 7x7, partner max 10 µM) | 0.106 | 0.0277 | 0.0915 | 0.179 | 0.845 | 0.264 | 0.138 | 0.169 | 0.738 | 0.0944 | 0.0512 | 0.376 | 0.0678 | 0.114 | 0.219 | 0.173 | 0.148 | 0.663 | 0.112 | 0.092
11 | COc1cccc(OCCCN)c1-c1cc(Nc2cnc(C#N)cn2)n[nH]1 [Prexasertib] + O=C(c1cc(Cc2n[nH]c(=O)c3ccccc23)ccc1F)N1CCN(C(=O)C2CC2)CC1 [Olaparib] (first compound max 1 µM, 7x7, partner max 10 µM) | 0.556 | 0.502 | 0.707 | 0.848 | 0.994 | 0.882 | 0.81 | 0.855 | 0.978 | 0.694 | 0.704 | 0.813 | 0.626 | 0.515 | 0.524 | 0.27 | 0.203 | 0.902 | 0.527 | 0.838
12 | CCN(CCO)CCCOc1ccc2c(Nc3cc(CC(=O)Nc4cccc(F)c4)[nH]n3)ncnc2c1 [AZD2811] + O=C(c1cc(Cc2n[nH]c(=O)c3ccccc23)ccc1F)N1CCN(C(=O)C2CC2)CC1 [Olaparib] (first compound max 1 µM, 7x7, partner max 10 µM) | 0.12 | 0.307 | 0.291 | 0.303 | 0.848 | 0.73 | 0.282 | 0.402 | 0.829 | 0.282 | 0.12 | 0.442 | 0.203 | 0.231 | 0.178 | 0.158 | 0.333 | 0.723 | 0.611 | 0.24
13 | Cc1c2c(nn1C)CSCc1cc(n(C)n1)CSc1cc(c3ccccc3c1)OCCCc1c(C(=O)O)n(C)c3c-2c(Cl)ccc13 [AZD5991] + C[C@@H](Nc1cc(F)cc(F)c1)c1cc(C(=O)N(C)C)cc2c(=O)cc(N3CCOCC3)oc12 [AZD8186] (first compound max 1 µM, 7x7, partner max 3 µM) | 0.282 | 0.232 | 0.42 | 0.255 | 0.374 | 0.95 | 0.899 | 0.497 | 0.103 | 0.262 | 0.462 | 0.986 | 0.173 | 0.426 | 0.893 | 0.824 | 0.527 | 1 | 0.723 | 0.485
